Consider one compound from patent publication US20240226018A1, “METHOD FOR COATING PHARMACEUTICAL SUBSTRATES” (Applied Materials, Inc., priority 2012, published 2024).

Each structure is given as a SMILES string.

The data set in a line: Tableting study: compression forces and crushing strength of tablets (eccentric tableting machine, Scleuninger-E apparatus). To be noted: tablets of target weight 300 mg, flat-faced 9 mm punches, die wall lubricated with 5% (w/V) magnesium stearate in acetone; upper punch force differs per material (Table 1). The class given is physicochemical. The protocol: The material obtained from Example 1 was tableted using an instrumented eccentric tableting machine (Korsch EK-0, Erweka Apparatebau, Heusenstamm, Germany) Flat-faced 9 mm punches were used and the die wall was lubricated using 5% (w/V) magnesium stearate in acetone before each compression. The target weights of tablets were 300 mg. Compression forces during the compression process were measured and the crushing strength of each tablet was measured using Scleuninger-E apparatus (Switzerland) (Table 1).

Take `CC(=O)Nc1ccc(O)cc1` [Neat paracetamol, paracetamol]: the Crushing strength entry is “No tablet, no measurable”.
